The results in this text go back to ChEMBL document CHEMBL1151343, “Antitumor plants. X. Constituents of Nectandra rigida” (1980).

This assay deals with KB. The assay is described as follows: Cytotoxicity against human KB cells. Type of assay: functional. The note with it: read-out: ED50 (the source's name).

Values after ≈ are worked out from the molar mass of the structure shown.

Regarding `C/C=C/c1cc(OC)c2c(c1)[C@H](C)[C@@H](c1ccc(O)c(OC)c1)O2` [LICARIN A], the EC50 was 7 mg/L (≈ 21.4 µM).
